Test results from patent publication US6372804B1, “Noxious-insect repellent” (Kanebo, Ltd., priority 1991, dated 2002).

Key:
[1] = tested on: imagoes of the tiger mosquito, Aedes albopictus; experiment: noxious-insect repellency test (treated forearm in a cage of tiger mosquitoes, percent repellency from biting marks); type: in vivo; conditions: for Percent repellency: an hour after application; for noxious-insect repelling effect and durability (result in words): lotion or milky lotion containing the compound, tiger mosquito imagoes
Description: In each example, the noxious-insect repellency test was conducted as follows:
Test method of noxious-insect repelling effect and durability thereof In order to assess the repelling effect against imagoes of the tiger mosquito, Aedes albopictus, the following test was conducted at a room temperature of 30° C. and a relative humidity of 70% in an air-conditioned room. 10 ml each of test samples was applied to left and right forearms. Each treated forearm was introduced into a wire gauze cage (20 cm L.×15 cm Dia.) containing 50 female and 50 male tiger mosquitoes 5-7 days old after eclosion, for 15 minutes to afford time for biting. The assessment was repeated 30 minutes, 1 hour, 2 hours, 4 hours and 6 hours after the test sample was applied. The number of marks made by biting within each biting time was counted and a percent repellency was calculated using the following formula:
Percent repellency=(X−Y)/X×100 (%)
X: the number of the marks made by biting when the test sample was not applied,
Y: the number of the marks made by biting when the test sample was applied.

[2] = solubility in a 90 wt. % ethanol aqueous solution; type: physicochemical; set-up: key: ◯: Soluble; X: Insoluble
Description: (§1) With the purpose of investigating the properties of the compounds to be used for the present invention, solubilities in a 90 wt. % ethanol aqueous solution and stabilities at 0° C., room temperature and 40° C., of hydroxymethyl-menthol, 2-hydroxymethyl-2-butyl-cyclopentanol and 2-(1-hydroxyisopropyl)-5,6-dimethyl-cyclohexanone, were investigated. […] Furthermore, it can be understood that the quantity of the repellent compound is preferred to be at most 20% by weight, in view of touch in use.

[3] = stability in a 90 wt. % ethanol aqueous solution at 0° C., room temperature and 40° C.; type: physicochemical; set-up: key: ◯: Stable; X: Precipitated
Description: as §1

[4] = 0° C., content 10% (wt. %) in 90 wt. % ethanol aqueous solution
[5] = 0° C., content 20% (wt. %) in 90 wt. % ethanol aqueous solution
[6] = 0° C., content 50% (wt. %) in 90 wt. % ethanol aqueous solution
[7] = 0° C., content 90% (wt. %) in 90 wt. % ethanol aqueous solution
[8] = 0° C., content 95% (wt. %) in 90 wt. % ethanol aqueous solution
[9] = 40° C., content 10% (wt. %) in 90 wt. % ethanol aqueous solution
[10] = 40° C., content 20% (wt. %) in 90 wt. % ethanol aqueous solution
[11] = 40° C., content 50% (wt. %) in 90 wt. % ethanol aqueous solution
[12] = 40° C., content 90% (wt. %) in 90 wt. % ethanol aqueous solution
[13] = 40° C., content 95% (wt. %) in 90 wt. % ethanol aqueous solution
[14] = room temperature, content 10% (wt. %) in 90 wt. % ethanol aqueous solution
[15] = room temperature, content 20% (wt. %) in 90 wt. % ethanol aqueous solution
[16] = room temperature, content 50% (wt. %) in 90 wt. % ethanol aqueous solution
[17] = room temperature, content 90% (wt. %) in 90 wt. % ethanol aqueous solution
[18] = room temperature, content 95% (wt. %) in 90 wt. % ethanol aqueous solution

CCCCC1(CO)CCCC1O (centres unmarked) [2-Hydroxymethyl-2-butyl-cyclopentanol, 2-hydroxymethyl-2-butyl-cyclopentanol]
Percent repellency ([1]; content 0.1% (wt. %) in 40 wt. % ethanol aqueous solution): 24% | Percent repellency ([1]; content 1% (wt. %) in 40 wt. % ethanol aqueous solution): 60% | Percent repellency ([1]; content 3% (wt. %) in 40 wt. % ethanol aqueous solution): 88% | Solubility [2, 4]: ◯ | Solubility [2, 5]: ◯ | Solubility [2, 6]: ◯ | Solubility [2, 7]: ◯ | Solubility [2, 8]: ◯ | Solubility [2, 9]: ◯ | Solubility [2, 10]: ◯ | Solubility [2, 11]: ◯ | Solubility [2, 12]: ◯ | Solubility [2, 13]: ◯ | Solubility [2, 14]: ◯ | Solubility [2, 15]: ◯ | Solubility [2, 16]: ◯ | Solubility [2, 17]: ◯ | Solubility [2, 18]: ◯ | Stability [3, 4]: ◯ | Stability [3, 5]: ◯ | Stability [3, 6]: ◯ | Stability [3, 7]: ◯ | Stability [3, 8]: X | Stability [3, 9]: ◯ | Stability [3, 10]: ◯ | Stability [3, 11]: ◯ | Stability [3, 12]: ◯ | Stability [3, 13]: ◯ | Stability [3, 14]: ◯ | Stability [3, 15]: ◯ | Stability [3, 16]: ◯ | Stability [3, 17]: ◯ | Stability [3, 18]: X

p-menthane-2-ethyl-3,8-diol
noxious-insect repelling effect and durability (result in words) [1]: excellent noxious-insect repelling effect and durability

p-menthane-2-hexyl-3,8-diol
noxious-insect repelling effect and durability (result in words) [1]: excellent noxious-insect repelling effect and durability
